# Tests used:
# Set-up in all cases: species or system AML cell lines (8); Primary HTS, single concentration about 10 uM, Cell Titer Glo viability; log10 luminescence, per cent inhibition relative to cycloheximide control
# Settings in all cases: 72 h, relative to cycloheximide control, log10 luminescence; inhibitor
# ML-2 = system: ML-2
# MOLM-13 = system: MOLM-13
# M07e = system: M07e
# MV4-11 = system: MV4-11
# CMS = system: CMS
# CMK = system: CMK
# CHRF288-11 = system: CHRF288-11
# U937 = system: U937
Compound,ML-2 %inh (ML-2) [%],MOLM-13 %inh (MOLM-13) [%],M07e %inh (M07e) [%],MV4-11 %inh (MV4-11) [%],CMS %inh (CMS) [%],CMK %inh (CMK) [%],CHRF288-11 %inh (CHRF288-11) [%],U937 %inh (U937) [%]
"Fc1ccc(Nc2nccc(-c3c(-c4ccc(C(F)(F)F)cc4)nn4ncccc34)n2)cc1F [SJ000573224-1, U17838/186/3]",2.7,-1.248,-1.97,-1.825,-1.104,0.9298,-0.9437,0.5152
"FC(F)(F)c1ccc(-c2nn3ncccc3c2-c2ccnc(Nc3ccc4c(c3)OCCO4)n2)cc1 [SJ000573225-1, U17838/185/2]",1.234,-3.312,2.059,7.035,-3.296,-4.267,13.54,-2.674
"COc1cc(C=NNc2ncnc3c2cnn3-c2ccccc2)ccc1O [SJ000573226-1, U14681/58/1]",-0.2562,3.51,11.87,35.25,3.107,-0.5633,10.72,8.322
"CN(C)CCOc1ccc(-c2cc(-c3ccc4c(c3)CCC4=NO)c(-c3ccncc3)o2)cc1 [SJ000573227-1, JS84326-047A1]",66.89,21.06,14.13,2.356,6.225,15.46,127,9.989
"CCc1nccc2c1nc(-c1nonc1N)n2CC [SJ000573228-1, DW100508-159A1]",3.812,4.708,-1.816,4.392,-0.9805,3.989,7.841,6.241
"Cn1c(-c2nonc2N)nc2cnccc21 [SJ000573229-1, SD100950-025A1]",1.359,0.5998,-6.783,1.313,2.573,8.868,1.476,2.832
"COc1ccc(-c2nn3ncccc3c2-c2ccnc(Nc3ccc(F)c(F)c3)n2)cc1 [SJ000573231-1, U17838/182/3]",2.035,-1.234,-2.16,-1.012,1.385,1.273,-2.425,-1.69
"COc1ccc2c(-c3ccnc(Nc4cccc(OC(F)(F)F)c4)n3)cnn2n1 [SJ000573232-1, U17838/93/4]",8.399,-2.645,3.247,0.503,1.867,-2.18,5.074,2.538
"CCOc1ccc2c(-c3ccnc(Nc4cc(OC)cc(C(F)(F)F)c4)n3)cnn2n1 [SJ000573233-1, U17838/82/6]",0.4459,-2.068,5.562,0.1159,0.7407,-2.522,13.25,1.137
"Clc1ccc(CNc2nccc(-c3cnn4ncccc34)n2)cc1 [SJ000573234-1, U16767/129/1]",6.981,8.357,7.216,36.98,12.69,3.942,14.43,20.4
"CN1CCC(n2cnc(-c3ccc(F)cc3)c2-c2ccnc(Nc3ccccc3)n2)CC1 [SJ000573236-1, TG19207-284A1]",9.737,50.36,7.373,26.4,10.11,43.62,30.13,6.434
